Activity calls are given as the source filed them. How the calls were made is not given here.
Tested on: GENE-TOX genotoxicity assays, various organisms and cells
Assay: GENE-TOX mutagenicity studies
Settings: for call: Assay Type: In vivo carcinogenicity studies
[1] = Species/Cell Type: Human diploid fibroblasts, Assay Type: Unscheduled DNA synthesis (UDS) in vitro, DNA effects, Assay Code: UDH-, Evaluation Type: Evaluation A (Pre-1980)
[2] = Species/Cell Type: Saccharomyces cerevisiae, Assay Type: Mitotic recombination or gene conversion, Assay Code: YEH-, Evaluation Type: Evaluation A (Pre-1980)
[3] = Species/Cell Type: Human lymphocytes, Assay Type: Sister-chromatid exchange (SCE) in vitro, Assay Code: SCLT, Evaluation Type: Evaluation B (Post-1980)
[4] = Species/Cell Type: Human, Assay Type: Sister-chromatid exchange (SCE) in vitro, Assay Code: SC1T, Evaluation Type: Evaluation B (Post-1980)
[5] = Species/Cell Type: Human lymphocytes, Assay Type: Sister-chromatid exchange (SCE) in vitro, Assay Code: SCL+, Evaluation Type: Evaluation B (Post-1980)
[6] = Species/Cell Type: Human, Assay Type: Sister-chromatid exchange (SCE) in vitro, Assay Code: SC1+, Evaluation Type: Evaluation B (Post-1980)
[7] = Species/Cell Type: Nonhuman, Assay Type: Sister-chromatid exchange (SCE) in vitro, Assay Code: SC2+, Evaluation Type: Evaluation B (Post-1980)
[8] = Species/Cell Type: Salmonella typhimurium (one or more of the five standard strains: TA98, TA100, TA1535, TA1537, and TA1538), Assay Type: Histidine reverse gene mutation, Ames assay, Assay Code: SAL+*, Activation: With metabolic activation, Evaluation Type: Evaluation A (Pre-1980)
[9] = Species/Cell Type: Nonhuman, Assay Type: Sister-chromatid exchange (SCE) in vitro, Assay Code: SC2T, Evaluation Type: Evaluation B (Post-1980)
[10] = Species/Cell Type: Nonhuman, Assay Code: CCG+, Evaluation Type: Evaluation A (Pre-1980)
[11] = Species/Cell Type: Drosophila melanogaster, Assay Type: Sex-linked recessive lethal gene mutation, Assay Code: SRLT, Evaluation Type: Evaluation A (Pre-1980)
[12] = Species/Cell Type: Salmonella typhimurium (one or more of the five standard strains: TA98, TA100, TA1535, TA1537, and TA1538), Assay Type: Histidine reverse gene mutation, Ames assay, Assay Code: SAL+, Evaluation Type: Evaluation A (Pre-1980)
[13] = Species/Cell Type: Bacillus subtilis (H17 vs M45), Assay Type: Rec-assay, spot test, DNA effects (bacterial DNA repair), Assay Code: REWT, Evaluation Type: Evaluation A (Pre-1980)
[14] = Species/Cell Type: Human, Assay Type: Sister-chromatid exchange (SCE) in vitro, Assay Code: SC1+D, Dose Response: With dose response, Evaluation Type: Evaluation B (Post-1980)

With `c1ccc2c(c1)ccc1ccccc12` the mutagenic call (Species/Cell Type: Allium cepa, Assay Type: Chromosome aberrations, Assay Code: ALC+, Evaluation Type: Evaluation A (Pre-1980)) was “active; positive”, the mutagenic call (Species/Cell Type: Escherichia coli polA (W3110 vs P3478), Assay Type: Rec-assay, DNA effects (bacterial DNA repair), Assay Code: RE2-, Evaluation Type: Evaluation A (Pre-1980)) was “inactive; negative” and the mutagenic call (Species/Cell Type: Escherichia coli polA (W3119 vs P3478), Assay Type: Rec-assay, DNA effects (bacterial DNA repair), Assay Code: RE1T, Evaluation Type: Evaluation A (Pre-1980)) was “no conclusion”. The mutagenic call (Species/Cell Type: Fischer rat embryo (RLV/1706) cells, Assay Type: Cell transformation, viral enhanced, Assay Code: CTRT, Evaluation Type: Evaluation A (Pre-1980)) was “no conclusion”, the mutagenic call [1] was “inactive; negative” and the mutagenic call (Species/Cell Type: Mammalian polychromatic erythrocytes, Assay Type: Micronucleus test, chromosome aberrations, Assay Code: MNTT, Evaluation Type: Evaluation A (Pre-1980)) was “no conclusion”. The mutagenic call (Species/Cell Type: Mouse (BALB/c-3T3) cells, Assay Type: Cell transformation, Assay Code: CTB-, Evaluation Type: Evaluation A (Pre-1980)) was “inactive; negative”, the mutagenic call (Species/Cell Type: Mouse embryo (AKR/ME) cells, Assay Type: Cell transformation, Assay Code: CTK+, Evaluation Type: Evaluation A (Pre-1980)) was “active; positive” and the mutagenic call (Species/Cell Type: Mouse prostate cells, Assay Type: Cell transformation, Assay Code: CTM-, Evaluation Type: Evaluation A (Pre-1980)) was “inactive; negative”. For the same compound, the mutagenic call (Species/Cell Type: Nonhuman, Assay Type: Chromosome aberrations in vitro, Assay Code: CY&-, Evaluation Type: Evaluation A (Pre-1980)) was “inactive; negative”, the call (Species/Cell Type: Nonhuman, Assay Code: CCGT, Evaluation Type: Evaluation A (Pre-1980)) was “no conclusion” and the mutagenic call (Species/Cell Type: Nonhuman, Assay Type: Sister-chromatid exchange (SCE) in vitro, Assay Code: SC2-, Evaluation Type: Evaluation A (Pre-1980)) was “inactive; negative”. The mutagenic call (Species/Cell Type: Nonhuman, Assay Type: Sister-chromatid exchange (SCE) in vivo, Assay Code: SC3+, Evaluation Type: Evaluation B (Post-1980)) was “active; positive”, the mutagenic call (Species/Cell Type: Nonhuman, Assay Type: Sister-chromatid exchange (SCE) in vivo, Assay Code: SC3T, Evaluation Type: Evaluation A (Pre-1980)) was “no conclusion” and the mutagenic call [2] was “inactive; negative”. For the same compound, the mutagenic call (Species/Cell Type: Salmonella typhimurium (one or more of the five standard strains: TA98, TA100, TA1535, TA1537, and TA1538), Assay Type: Histidine reverse gene mutation, Ames assay, Assay Code: SAL-, Evaluation Type: Evaluation A (Pre-1980)) was “inactive; negative”, the mutagenic call (Species/Cell Type: Salmonella typhimurium, Assay Type: Forward and reverse gene mutation, host-mediated assay, Assay Code: HMA-, Evaluation Type: Evaluation A (Pre-1980)) was “inactive; negative” and the mutagenic call (Species/Cell Type: Syrian hamster embryo (SHE) cells, Assay Type: Cell transformation, clonal assay, Assay Code: CTC-, Evaluation Type: Evaluation A (Pre-1980)) was “inactive; negative”.

For `c1ncc2[nH]cnc2n1`, the mutagenic call (Species/Cell Type: Escherichia coli polA (W3119 vs P3478), Assay Type: Rec-assay, DNA effects (bacterial DNA repair), Assay Code: RE1-, Evaluation Type: Evaluation A (Pre-1980)) was “inactive; negative”.

`CCc1cccc(O)c1` was tested, and the mutagenic call [3] was “no conclusion” and the mutagenic call [4] was “no conclusion”.

For `CC(C)N1C(=O)c2ccccc2NS1(=O)=O`, the mutagenic call (Species/Cell Type: Saccharomyces cerevisiae, Assay Type: Mitotic recombination or gene conversion, Assay Code: YEC-, Evaluation Type: Evaluation A (Pre-1980)) was “inactive; negative”.

In the case of `CC(C)CC=O`, the mutagenic call [5] is reported as “active; positive” and the mutagenic call [6] is reported as “active; positive”.

In the case of `O.O.O.O.O.O.O.O.O.O=[N+]([O-])[O-].O=[N+]([O-])[O-].O=[N+]([O-])[O-].[Cr+3]`, the mutagenic call [7] is reported as “active; positive”.

`C=CCOC(N)=O` was tested, and the mutagenic call (Species/Cell Type: Nonhuman, Assay Type: Sister-chromatid exchange (SCE) in vivo, Assay Code: SC3+D, Dose Response: With dose response, Evaluation Type: Evaluation B (Post-1980)) was “active; positive”.

For `CC1=CCc2c1cc(C)c1c2ccc2ccccc21`, the mutagenic call [8] was “active; positive”.

With `[Cl][Mn][Cl]` the mutagenic call (Species/Cell Type: Bacillus subtilis (H17 vs M45), Assay Type: Rec-assay, spot test, DNA effects (bacterial DNA repair), Assay Code: REW+, Evaluation Type: Evaluation A (Pre-1980)) was “active; positive”, the mutagenic call (Species/Cell Type: Fischer rat embryo (RLV/1706) cells, Assay Type: Cell transformation, viral enhanced, Assay Code: CTR+, Evaluation Type: Evaluation A (Pre-1980)) was “active; positive” and the mutagenic call [9] was “no conclusion”. The mutagenic call (Species/Cell Type: Syrian hamster embryo (SA7/SHE) cells, Assay Type: Cell transformation, viral enhanced, Assay Code: CT7+, Evaluation Type: Evaluation A (Pre-1980)) was “active; positive”.

For `CC(COc1ccccc1)N(CCCl)Cc1ccccc1` (stereo not drawn), the call [10] was “active; positive”.

For `Cc1cc(/C=C/c2ccc3cc(N(C)C)ccc3[n+]2C)c(C)n1-c1ccccc1`, the mutagenic call [7] was “active; positive” and the mutagenic call [8] was “active; positive”.

For `CC(N)Cc1ccccc1` (stereo not drawn), the mutagenic call (Species/Cell Type: Drosophila melanogaster, Assay Type: Aneuploidy, sex chromosome gain, chromosome aberrations, Assay Code: DAGT, Evaluation Type: Evaluation A (Pre-1980)) was “no conclusion”, the mutagenic call (Species/Cell Type: Drosophila melanogaster, Assay Type: Aneuploidy, whole sex chromosome loss, chromosome aberrations, Assay Code: DACT, Evaluation Type: Evaluation A (Pre-1980)) was “no conclusion” and the mutagenic call [11] was “no conclusion”. For the same compound, the mutagenic call (Species/Cell Type: Mammalian polychromatic erythrocytes, Assay Type: Micronucleus test, chromosome aberrations, Assay Code: MNT+, Evaluation Type: Evaluation B (Post-1980)) was “active; positive”.

For `BrCC(Br)CBr`, the mutagenic call [12] was “active; positive”.

For `CCN(CC)c1ccc2c(-c3ccc(S(=O)(=O)O)cc3S(=O)(=O)[O-])c3ccc(=[N+](CC)CC)cc-3oc2c1`, the mutagenic call [13] was “no conclusion” and the mutagenic call (Species/Cell Type: Bacillus subtilis (H17 vs M45T), Assay Type: Rec-assay, spot test, DNA effects (bacterial DNA repair), Assay Code: REXT, Evaluation Type: Evaluation A (Pre-1980)) was “no conclusion”.

With `CC(C)=CC1C(C(=O)OCc2coc(Cc3ccccc3)c2)C1(C)C` (stereo not drawn) the mutagenic call [1] was “inactive; negative” and the mutagenic call [2] was “inactive; negative”.

`O=S(=O)(O)c1ccc2c(N=Nc3cccc4ccccc34)c(O)c(S(=O)(=O)O)cc2c1` was tested, and the mutagenic call [13] was “no conclusion”.

In the case of `Cc1cc(C)cc(C2CO2)c1` (stereo not drawn), the mutagenic call (Species/Cell Type: Human lymphocytes, Assay Type: Sister-chromatid exchange (SCE) in vitro, Assay Code: SCL+D, Dose Response: With dose response, Evaluation Type: Evaluation B (Post-1980)) is reported as “active; positive” and the mutagenic call [14] is reported as “active; positive”.

`CCOP(=S)(OCC)Oc1nc(Cl)c(Cl)cc1Cl` was tested, and the mutagenic call [11] was “no conclusion”, the mutagenic call (Species/Cell Type: Escherichia coli polA (W3119 vs P3478), Assay Type: Rec-assay, DNA effects (bacterial DNA repair), Assay Code: RE1+, Evaluation Type: Evaluation A (Pre-1980)) was “active; positive” and the mutagenic call [1] was “inactive; negative”. For the same compound, the mutagenic call [14] was “active; positive”, the mutagenic call [9] was “no conclusion” and the mutagenic call (Species/Cell Type: Nonhuman, Assay Type: Sister-chromatid exchange (SCE) in vivo, Assay Code: SC3-, Evaluation Type: Evaluation B (Post-1980)) was “inactive; negative”. The mutagenic call [2] was “inactive; negative” and the mutagenic call (Species/Cell Type: Salmonella typhimurium (one or more of the five standard strains: TA98, TA100, TA1535, TA1537, and TA1538), Assay Type: Histidine reverse gene mutation, Ames assay, Assay Code: SALT, Evaluation Type: Evaluation A (Pre-1980)) was “no conclusion”.

In the case of `[Be]=[O]`, the call [10] is reported as “active; positive”.

With `N=C(N)SCCN` the mutagenic call [5] was “active; positive”, the mutagenic call [3] was “no conclusion” and the mutagenic call [6] was “active; positive”. The mutagenic call [4] was “no conclusion”.

In the case of `Cc1ccc(OC(=O)N(C)N=O)cc1C`, the mutagenic call (Species/Cell Type: Bacillus subtilis (H17 vs M45T), Assay Type: Rec-assay, spot test, DNA effects (bacterial DNA repair), Assay Code: REX+, Evaluation Type: Evaluation A (Pre-1980)) is reported as “active; positive” and the mutagenic call (Species/Cell Type: Escherichia coli WP2, Assay Type: Tryptophan reverse gene mutation, Assay Code: WP2+, Evaluation Type: Evaluation A (Pre-1980)) is reported as “active; positive”.

In the case of `CCOC(=O)C1C(C=C(C)C)C1(C)C` (stereo not drawn), the mutagenic call [1] is reported as “inactive; negative” and the mutagenic call (Species/Cell Type: Saccharomyces cerevisiae, Assay Type: Mitotic recombination or gene conversion, Assay Code: YEH+, Evaluation Type: Evaluation A (Pre-1980)) is reported as “active; positive”.

`COc1ccc2c3ccc(OC)cc3c3c4cc(OC)ccc4c4ccc(OC)cc4c3c2c1` was tested, and the mutagenic call [8] was “active; positive”.

In the case of `CCN(CC)CCCNC(=O)C(=O)N/N=C/c1ccc([N+](=O)[O-])o1`, the mutagenic call (Species/Cell Type: Escherichia coli WP2 UVRA, Assay Type: Tryptophan reverse gene mutation, Assay Code: WPU+D, Dose Response: With dose response, Evaluation Type: Evaluation A (Pre-1980)) is reported as “active; positive”.

With `CCCCCCN(N=O)C(N)=O` the mutagenic call [12] was “active; positive”.

`CN(OC(=O)c1ccccc1)c1ccc(N=Nc2ccccc2)cc1` was tested, and the mutagenic call [11] was “no conclusion”.

`CS(C)=O.CS(C)=O.CS(C)=O.CS(C)=O.[Cl][Ru][Cl]` was tested, and the mutagenic call [12] was “active; positive”.
